From US7276371B2, “Stimulation of hematopoietic cells in vitro” (Point Therapeutics, Inc., priority 1997, dated 2007)

What was measured:
bone marrow cells = test: Bone marrow cell growth stimulation, 4 day culture without added cytokines, cell count; format: cell-based; conditions: 10,000 bone marrow cells per well at start, IMDM, no growth factors, control 10,000 cells
Description: Freshly isolated bone marrow cells were isolated and 10,000 cells per well were incubated in 96 microtiter plates in CellGro Iscove's Modified Dulbecco's Medium (IMDM) and with or without (control) the indicated concentrations of Pro-boroPro for 4 days. At the end of this incubation period, the cells were counted under the microscope. The cultures without Pro-boroPro contained 10,000 cells at the end of 4 days. The cultures containing Pro-boroPro had 53,000 cells at 10^−6M, 38,000 cells at 10^−8M and 42,000 cells at 10^−10 M. The cultures containing a growth factor mix (GF) contained 82,000 cells. Growth factors were supplied in OPITEN® Giant Cell Tumor-conditioned medium (IGEN)
Cultures were set up as described in the legend to FIG. 1 except that Lys-boroPro and the homoconjugate were used, and incubated for 4 days.
• 1. Obtain bone marrow or umbilical cord blood in heparinized (green top) tube. Can be stored at room temperature until use within 48 hours. • 2. Mix marrow/blood 1:1 with phosphate-buffered saline, pH 7.4(PBS) that has been stored at 4° C. • 3. Carefully layer blood-PBS mixture on a 2× volume quantity of Histopaque (Sigma) that has been stored at 4° C. • 4. Centrifuge at 400 g×20 minutes at 37° C. • 5. Carefully collect cells at interface and wash ×2 in cold PBS. • 6. Count viable cells using trypan blue. • 7. Set up cells as 1 ml cultures in plastic culture tubes (or 96 well or 24 well microtiter plates) at 10^4 cells/ml in CellGro Iscove's Modified Dulbecco's medium (Meditech) containing kanamycin (5 ug/ml), desired concentration of Xaa-boroPro or other compound of the invention, and the absence or presence of Giant Cell Tumor-Conditioned Medium (GCT-CM, Origen) as source of growth factors. Xaa-boroPro or other compounds of the invention should be diluted to medium and added to culture only after cells are in culture tube. • 8. Cells are cultured at 37° C. in a moist air incubator containing 5% CO2. • 9. At desired time, an aliquot of cells are removed and counted. • 10. […]

CD34+ isolated cells = test: CD34+ cells isolated from umbilical cord blood, 4 day culture: cell number and percent CD34+ remaining; format: cell-based, human; conditions: 10^−10M; isolated CD34+ cells (98% CD34+); control 0.6×10^6 cells
Description: (§1) Umbilical cord blood cells were incubated under essentially the same conditions as described in the legend to FIG. 1, except that Val-boroPro was used as stimulant at the indicated concentrations. After 4 day incubation: • A: Bulk Umbilical Cord Blood; Total Cell Counts. Control culture: 0.2×10^6 cells; Growth factors 5×10^6 cells; Val-boroPro: 3×10^6 (10^−6M); 3×10^6 (10^−8M); 4×10^6 ([…]). • B: CD34+ isolated cells: CD34+ cells were isolated using CD34 mAb coupled beads for positive selection. Cell preparation contained 98% CD34+ cells. After 4 days of incubation the culture containing 10^−10M Val-boroPro contained 8.5×10^6 cells, compared to 0.6×10^6 cells in the control and 4×10^6 cells in the incubation with growth factors.
C: Percent of CD34+ cells remaining after 4 day culture: Cultures incubated with Val-boroPro contained between 10 and 15% of CD34+ cells after 4 day culture. Cultures incubated with Growth Factors had only 4% of CD34+ cells remaining (panel b).
• 1. Obtain bone marrow or umbilical cord blood in heparinized (green top) tube. Can be stored at room temperature until use within 48 hours. • 2. […] Carefully layer blood-PBS mixture on a 2× volume quantity of Histopaque (Sigma) that has been stored at 4° C. • 4. […] At desired time, an aliquot of cells are removed and counted. • 10. […]

Isolated CD34+ cells = Isolated CD34+ cells (98% purity) of bone marrow, 4 day culture: growth stimulation and percent CD34+ remaining; format: cell-based, human
Description: (§2) • 1. Obtain bone marrow or umbilical cord blood in heparinized (green top) tube. Can be stored at room temperature until use within 48 hours. • 2. Mix marrow/blood 1:1 with phosphate-buffered saline, pH 7.4(PBS) that has been stored at 4° C. • 3. Carefully layer blood-PBS mixture on a 2× volume quantity of Histopaque (Sigma) that has been stored at 4° C. • 4. Centrifuge at 400 g×20 minutes at 37° C. • 5. Carefully collect cells at interface and wash ×2 in cold PBS. • 6. Count viable cells using trypan blue. • 7. Set up cells as 1 ml cultures in plastic culture tubes (or 96 well or 24 well microtiter plates) at 10^4 cells/ml in CellGro Iscove's Modified Dulbecco's medium (Meditech) containing kanamycin (5 ug/ml), desired concentration of Xaa-boroPro or other compound of the invention, and the absence or presence of Giant Cell Tumor-Conditioned Medium (GCT-CM, Origen) as source of growth factors. Xaa-boroPro or other compounds of the invention should be diluted to medium and added to culture only after cells are in culture tube. • 8. Cells are cultured at 37° C. in a moist air incubator containing 5% CO2. • 9. At desired time, an aliquot of cells are removed and counted. • 10. Counting can be performed under the microscope (direct) or by using the MTT assay (colorimetric assay).

[1] = tested on: Umbilical cord blood cells; test: Bulk umbilical cord blood, total cell counts after 4 day incubation; format: cell-based; conditions: control culture 0.2×10^6 cells
Description: as §1, §2

O=C(C1CCCN1)N1CCCC1B(O)O (stereo not drawn) [Pro-boroPro]
number of cells at the end of 4 days (bone marrow cells; 10^−6M): 53,000 cells | number of cells at the end of 4 days (bone marrow cells; 10^−8M): 38,000 cells | number of cells at the end of 4 days (bone marrow cells; 10^−10 M): 42,000 cells

CC(C)[C@H](N)C(=O)N1CCC[C@H]1B(O)O [Val-boroPro]
number of cells after 4 days of incubation (CD34+ isolated cells): 8.5×10^6 cells | increase in stimulation of cellular growth over that in control cultures (Isolated CD34+ cells; 4 day culture, concentration not given): up to 20 fold | Percent of CD34+ cells remaining in culture after a 4 day incubation period (Isolated CD34+ cells; isolated bone marrow CD34+ cells, control 63%): 43% | Total Cell Counts after 4 day incubation ([1]; 10^−6M): 3×10^6 | Total Cell Counts after 4 day incubation ([1]; 10^−8M): 3×10^6 | Total Cell Counts after 4 day incubation ([1]; 10^−M (so in the source)): 4×10^6
